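In this assay, cells in 96-well plates receive the compound at five concentrations for 48 hours. Endpoints are linearly interpolated between the surrounding concentrations. GI50 = concentration required for 50% inhibition of growth. TGI: total growth inhibition.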

The source of these data is PubChem BioAssay (NCI).

Test systems include HCT-116 colon; MALME-3M melanoma; MCF7 breast; OVCAR-5 ovarian; SF-268 CNS; SK-MEL-2 melanoma; SK-MEL-5 melanoma; SNB-75 CNS; T-47D breast; TK-10 renal.
Holding throughout (test): inhibition of tumour cell growth, NCI panel, 48 h

Take `Cc1cnc2n1S(=O)(=O)c1cc(C(=O)Nc3cccc4nsnc34)c(Cl)cc1S2`: the GI50 in the experiment with HCT-116 colon was 20.1 µM; in the experiment with MALME-3M melanoma, 13.9 µM; in the experiment on MCF7 breast, 16.4 µM; in the experiment with OVCAR-5 ovarian it was 54 µM; in the experiment on SF-268 CNS, 22.5 µM; in the experiment with SK-MEL-2 melanoma, 44.2 µM. Moreover, the GI50 in the experiment with SK-MEL-5 melanoma was 26.4 µM; in the experiment with SNB-75 CNS, 25.6 µM; with T-47D breast, 11.5 µM; with TK-10 renal, 19.8 µM. Further, the TGI in the experiment on HCT-116 colon was 35.6 µM; in the experiment on MALME-3M melanoma, 40.9 µM; with MCF7 breast it was 32.2 µM; in the experiment on OVCAR-5 ovarian it was more than 100 µM; with SF-268 CNS it was 55.6 µM; in the experiment with SK-MEL-2 melanoma, more than 100 µM. The TGI with SK-MEL-5 melanoma worked out at 98.1 µM; in the experiment on SNB-75 CNS, 62.3 µM; in the experiment with T-47D breast, 31.9 µM; in the experiment on TK-10 renal it was 40 µM.
In the case of `O=C(NCCCCN1CCOCC1)c1cc2ccccc2o1`, the GI50 in the experiment with HCT-116 colon, in the experiment on MALME-3M melanoma, in the experiment on MCF7 breast, in the experiment with OVCAR-5 ovarian, with SF-268 CNS and with SK-MEL-2 melanoma was more than 100 µM throughout. In addition, the GI50 in the experiment with SK-MEL-5 melanoma, in the experiment on SNB-75 CNS, with T-47D breast and in the experiment with TK-10 renal was more than 100 µM in each case. Also, the TGI with HCT-116 colon, in the experiment on MALME-3M melanoma, in the experiment with MCF7 breast, in the experiment on OVCAR-5 ovarian, in the experiment on SF-268 CNS and in the experiment with SK-MEL-2 melanoma was more than 100 µM in each case. Besides, the TGI with SK-MEL-5 melanoma, in the experiment with SNB-75 CNS, with T-47D breast and in the experiment on TK-10 renal was more than 100 µM throughout.
